Measurements taken from PubChem BioAssay AID1963826 (Molecular Pharmacology Branch, DTP, NCI, 2024).
“And” between values parts separate entries of the source, which are not always exact repeats. Equal values may be shown once.

Test system: 926638-142-R-J1-PDC complex spheroid viability
Assay: Anticancer human tumor 926638-142-R-J1-PDC patient-derived endometrial carcinoma cell line growth inhibition [POLQ]
Details: for viability, T/C: stronger effect = lower value; active means viability on the fitted dose curve at most 10% of control; inactive means the rest
Outline: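 Patient-derived tumour cells were co-cultured with HUVEC and mesenchymal stem cells as multicellular spheroids at 37 °C. They were treated with POLQ inhibitors (novobiocin, ART-558, RP6685) alone or combined with other agents. Top concentrations were at or near clinical Cmax (otherwise 10 microM; SN-38 at 1 microM), decreasing in half-log steps.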

[1] = curve of first compound, second compound 0.0316 µM
[2] = curve of first compound, second compound 0.1 µM
[3] = curve of first compound, second compound 0.316 µM
[4] = curve of first compound, second compound 1 µM
[5] = curve of first compound, second compound 3.16 µM
[6] = curve of first compound, second compound 10 µM
[7] = second compound 0.0316 µM, first compound 0.0316 µM
[8] = second compound 0.0316 µM, first compound 0.1 µM
[9] = second compound 0.1 µM, first compound 0.0316 µM
[10] = second compound 0.1 µM, first compound 0.1 µM
[11] = second compound 0.316 µM, first compound 0.0316 µM
[12] = second compound 0.316 µM, first compound 0.1 µM
[13] = second compound 1 µM, first compound 0.0316 µM
[14] = second compound 1 µM, first compound 0.1 µM
[15] = second compound 3.16 µM, first compound 0.0316 µM
[16] = second compound 3.16 µM, first compound 0.1 µM
[17] = second compound 10 µM, first compound 0.0316 µM
[18] = second compound 10 µM, first compound 0.1 µM
[19] = second compound 0.0316 µM, first compound 0.316 µM
[20] = second compound 0.0316 µM, first compound 1 µM
[21] = second compound 0.0316 µM, first compound 3.16 µM
[22] = second compound 0.0316 µM, first compound 10 µM
[23] = second compound 0.1 µM, first compound 0.316 µM
[24] = second compound 0.1 µM, first compound 1 µM
[25] = second compound 0.1 µM, first compound 3.16 µM
[26] = second compound 0.1 µM, first compound 10 µM
[27] = second compound 0.316 µM, first compound 0.316 µM
[28] = second compound 0.316 µM, first compound 1 µM
[29] = second compound 0.316 µM, first compound 3.16 µM
[30] = second compound 0.316 µM, first compound 10 µM
[31] = second compound 1 µM, first compound 0.316 µM
[32] = second compound 1 µM, first compound 1 µM
[33] = second compound 1 µM, first compound 3.16 µM
[34] = second compound 1 µM, first compound 10 µM
[35] = second compound 3.16 µM, first compound 0.316 µM
[36] = second compound 3.16 µM, first compound 1 µM
[37] = second compound 3.16 µM, first compound 3.16 µM
[38] = second compound 3.16 µM, first compound 10 µM
[39] = second compound 10 µM, first compound 0.316 µM
[40] = second compound 10 µM, first compound 1 µM
[41] = second compound 10 µM, first compound 3.16 µM
[42] = second compound 10 µM, first compound 10 µM
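Further: spheroids exposed to drugs for one week before readout.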
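Wherever viability, T/C is given: percent viability relative to DMSO vehicle control wells set as 100%.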

CC[C@@]1(O)C(=O)OCc2c1cc1n(c2=O)Cc2cc3c(CN(C)C)c(O)ccc3nc2-1 + Nc1ccc(C#CCN(C(=O)Cc2ncc(C(F)(F)F)cc2C(F)(F)F)c2ccc(F)cc2)nn1
> 0.1 µM: IC50 [1] | IC50 [2] | IC50 [3]
0.0976 µM: IC50 [4]
0.0731 µM: IC50 [6]
inactive: viability, T/C (second compound 0.0316 µM, first compound 0.000316 µM) 105% | viability, T/C (second compound 0.0316 µM, first compound 0.001 µM) 96.1% | viability, T/C (second compound 0.0316 µM, first compound 0.00316 µM) 84% | viability, T/C (second compound 0.0316 µM, first compound 0.01 µM) 73.4% | viability, T/C [7] 71.5% | viability, T/C [8] 46.6% | viability, T/C (second compound 0.1 µM, first compound 0.000316 µM) 112% | viability, T/C (second compound 0.1 µM, first compound 0.001 µM) 90% | viability, T/C (second compound 0.1 µM, first compound 0.00316 µM) 81.6% | viability, T/C (second compound 0.1 µM, first compound 0.01 µM) 81.7% | viability, T/C [9] 69.2% | viability, T/C [10] 48.3% | viability, T/C (second compound 0.316 µM, first compound 0.000316 µM) 96.8% | viability, T/C (second compound 0.316 µM, first compound 0.001 µM) 109% | viability, T/C (second compound 0.316 µM, first compound 0.00316 µM) 86.2% | viability, T/C (second compound 0.316 µM, first compound 0.01 µM) 66.6% | viability, T/C [11] 64.1% | viability, T/C [12] 56.3% | viability, T/C (second compound 1 µM, first compound 0.000316 µM) 100% | viability, T/C (second compound 1 µM, first compound 0.001 µM) 101% | viability, T/C (second compound 1 µM, first compound 0.00316 µM) 89.6% | viability, T/C (second compound 1 µM, first compound 0.01 µM) 88.5% | viability, T/C [13] 71.2% | viability, T/C [14] 49.4% | viability, T/C (second compound 3.16 µM, first compound 0.000316 µM) 92.4% | viability, T/C (second compound 3.16 µM, first compound 0.001 µM) 92% | viability, T/C (second compound 3.16 µM, first compound 0.00316 µM) 89.7% | viability, T/C (second compound 3.16 µM, first compound 0.01 µM) 78.6% | viability, T/C [15] 74.6% | viability, T/C [16] 48.1% | viability, T/C (second compound 10 µM, first compound 0.000316 µM) 91.2% | viability, T/C (second compound 10 µM, first compound 0.001 µM) 88.5% | viability, T/C (second compound 10 µM, first compound 0.00316 µM) 80.2% | viability, T/C (second compound 10 µM, first compound 0.01 µM) 79.6% | viability, T/C [17] 65% | viability, T/C [18] 43.9%
0.0955 µM: IC50 [5]

C#Cc1c(F)ccc2cc(O)cc(-c3ncc4c(N5CC6CCC(C5)N6)nc(OCC56CCCN5CC(F)C6)nc4c3F)c12 (stereo not given)
inactive: viability, T/C (compound 0.0316 µM) 85.1% and 98.5% and 86.6% | viability, T/C (compound 0.1 µM) 88.2% and 90.2% and 93.3% | viability, T/C (compound 0.316 µM) 79.4% and 92.4% and 73.8% | viability, T/C (compound 1 µM) 78.3% and 69.2% and 77.4% | viability, T/C (compound 3.16 µM) 65.5% and 80.2% and 60.2% | viability, T/C (compound 10 µM) 52.5% (2×) and 67.8%
> 10 µM: IC50 (curve of compound)

CNCc1ccc(-c2[nH]c3cc(F)cc4c3c2CCNC4=O)cc1 + Nc1ccc(C#CCN(C(=O)Cc2ncc(C(F)(F)F)cc2C(F)(F)F)c2ccc(F)cc2)nn1
> 10 µM: IC50 [1] | IC50 [2] | IC50 [3] | IC50 [4] | IC50 [5] | IC50 [6]
inactive: viability, T/C [7] 94.5% | viability, T/C [8] 87.2% | viability, T/C [19] 91.2% | viability, T/C [20] 83.1% | viability, T/C [21] 86.2% | viability, T/C [22] 71.3% | viability, T/C [9] 96.7% | viability, T/C [10] 115% | viability, T/C [23] 90.7% | viability, T/C [24] 87.8% | viability, T/C [25] 101% | viability, T/C [26] 71.3% | viability, T/C [11] 101% | viability, T/C [12] 108% | viability, T/C [27] 95% | viability, T/C [28] 82.6% | viability, T/C [29] 115% | viability, T/C [30] 73.7% | viability, T/C [13] 103% | viability, T/C [14] 90.2% | viability, T/C [31] 91.2% | viability, T/C [32] 79.5% | viability, T/C [33] 95.3% | viability, T/C [34] 84.1% | viability, T/C [15] 102% | viability, T/C [16] 89.5% | viability, T/C [35] 101% | viability, T/C [36] 80.1% | viability, T/C [37] 93% | viability, T/C [38] 71.1% | viability, T/C [17] 90% | viability, T/C [18] 81.4% | viability, T/C [39] 93% | viability, T/C [40] 95.1% | viability, T/C [41] 98.7% | viability, T/C [42] 73.1%

COc1cc2cc(C(=O)CCC(=O)O)sc2cc1OC + Nc1ccc(C#CCN(C(=O)Cc2ncc(C(F)(F)F)cc2C(F)(F)F)c2ccc(F)cc2)nn1
inactive: viability, T/C [7] 101% | viability, T/C [8] 99.4% | viability, T/C [19] 104% | viability, T/C [20] 98.5% | viability, T/C [21] 104% | viability, T/C [22] 70% | viability, T/C [9] 111% | viability, T/C [10] 97.8% | viability, T/C [23] 91.1% | viability, T/C [24] 96.4% | viability, T/C [25] 104% | viability, T/C [26] 103% | viability, T/C [11] 110% | viability, T/C [12] 105% | viability, T/C [27] 107% | viability, T/C [28] 102% | viability, T/C [29] 112% | viability, T/C [30] 99.9% | viability, T/C [13] 111% | viability, T/C [14] 108% | viability, T/C [31] 90.4% | viability, T/C [32] 101% | viability, T/C [33] 112% | viability, T/C [34] 85.1% | viability, T/C [15] 110% | viability, T/C [16] 93.9% | viability, T/C [35] 105% | viability, T/C [36] 101% | viability, T/C [37] 104% | viability, T/C [38] 88.4% | viability, T/C [17] 89.3% | viability, T/C [18] 101% | viability, T/C [39] 83.4% | viability, T/C [40] 85.2% | viability, T/C [41] 96.4% | viability, T/C [42] 87.8%
> 10 µM: IC50 [1] | IC50 [2] | IC50 [3] | IC50 [4] | IC50 [5] | IC50 [6]

CCCS(=O)(=O)Nc1ccc(F)c(C(=O)c2c[nH]c3ncc(-c4ccc(Cl)cc4)cc23)c1F + Nc1ccc(C#CCN(C(=O)Cc2ncc(C(F)(F)F)cc2C(F)(F)F)c2ccc(F)cc2)nn1
8.58 µM: IC50 [4]
6.87 µM: IC50 [6]
inactive: viability, T/C [7] 99.5% | viability, T/C [8] 90.5% | viability, T/C [19] 103% | viability, T/C [20] 85.7% | viability, T/C [21] 80% | viability, T/C [22] 42.2% | viability, T/C [9] 111% | viability, T/C [10] 85.7% | viability, T/C [23] 103% | viability, T/C [24] 81.8% | viability, T/C [25] 94.5% | viability, T/C [26] 50.9% | viability, T/C [11] 90.4% | viability, T/C [12] 97.9% | viability, T/C [27] 100% | viability, T/C [28] 99.9% | viability, T/C [29] 87.1% | viability, T/C [30] 45.3% | viability, T/C [13] 105% | viability, T/C [14] 92.1% | viability, T/C [31] 93.3% | viability, T/C [32] 92.8% | viability, T/C [33] 80.4% | viability, T/C [34] 44.8% | viability, T/C [15] 89.8% | viability, T/C [16] 83.6% | viability, T/C [35] 90.5% | viability, T/C [36] 87.8% | viability, T/C [37] 88.6% | viability, T/C [38] 43.4% | viability, T/C [17] 87.9% | viability, T/C [18] 93.5% | viability, T/C [39] 91.3% | viability, T/C [40] 82.6% | viability, T/C [41] 71.2% | viability, T/C [42] 40.1%
8.9 µM: IC50 [3]
> 10 µM: IC50 [2]
8.43 µM: IC50 [5]
7.88 µM: IC50 [1]
